Each structure is given as a SMILES string. pIC50: −log10 of the molar value.

The assay relates to β-catenin/TCF reporter gene construct. The experiment in a line: β-catenin/TCF luciferase reporter assay in SW480 cells. It counts as cell-based, human. The method, then:
FIG. 1. COMPOUND 1 inhibits β-catenin/TCF transcription. • A(i) and A(ii). Structures of COMPOUND 1, COMPOUND 2, COMPOUND 3, COMPOUND 4, and COMPOUND 5. • B(i) and B(ii). […] SW480 cells (10^5), (FIG. 1B(i)), were transfected with β-catenin/TCF luciferase construct. Cells were treated with COMPOUND 1 (1-64 μM). 24 hours post treatment lysates were prepared and subjected to dual luciferase assay. The data is represented in different form in FIG. 1B(ii). • C. COMPOUND 1 has no effect on NFAT reporter construct. Stably transfected Jurkat cells, right panel, with an NFAT reporter construct, were stimulated with PMA (10 ng/ml)/lonomycin (1 μg/ml), and treated with COMPOUND 1 (0.781-50 μM). 24 hours post treatment lysates were prepared and subjected to dual luciferase assay. All experiments were performed in duplicate and the values plotted as means +/−standard deviation. • D. CBP is the molecular target of COMPOUND 1. Nuclear extracts of SW480 cells were incubated with streptavidin-agarose beads coated with COMPOUND 2 (25 μM). Beads were washed 3 times and the eluted were subjected to gel electrophoresis and immunoblotting, with anti-CBP antibodies. […] The lysates were desalted using G-25 1 cc columns (Pharmacia) to remove the unbound ^14C-labeled-COMPOUND 1, and ^14C-labeled-COMPOUND 1 incorporation was measured. […]
Background: A reporter such as luciferase makes a cellular process visible.

With `O=C1C(Cc2ccc(O)cc2)N2C(=O)CCN(C(=O)NCc3ccccc3)C2CN1Cc1cccc2ccccc12` (centres unmarked) [COMPOUND 1], the “Change of IC50 of COMPOUND 1 on transfection of increasing concentration of CBP” value (SW480 cells cotransfected with CBP (not β-catenin), dose-dependent) is reported as “increased the IC50”. Under “SW480 cells, 1-64 μM, 24 hours post treatment, dual luciferase assay”, this molecule showed a pIC50 of 5.30.

A word on the pIC50: it is the negative decadic logarithm of the IC50, by convention in mol/L. Higher therefore signals a low IC50.

These data come from US7531320B2, “Modulation of β-catenin/TCF-activated transcription” (priority 2003, dated 2009).
